{"source": "patent US20230158071A1", "about": "“TUMOR COMBINED IMMUNOTHERAPY” (CRAGE medical Co., Limited, priority 2018, published 2023)", "key": {"E0771-EGFRvIII cells": {"system": "E0771-EGFRvIII cells", "assay": "LDH cytotoxicity assay, CAR-T killing of olaparib-treated E0771-EGFRvIII cells", "assay_type": "cell-based, mouse", "method": "The experimental groups for incubating with cells that are positive for the antigen target comprises the following 4 groups: UTD group, 806-mCD28z-CAR-T group (or denoted as 806-28Z), olaparib pretreatment group, and olaparib combined treatment group;\nthe olaparib pretreatment group comprises: UTD+1 μM olaparib pretreatment group (or denoted as UTD+Olaparib 1 μM pretreatment), UTD+5 μM olaparib pretreatment group (or denoted as UTD+Olaparib 5 μM pretreatment), 806-mCD28z-CAR-T+1 μM olaparib pretreatment group (or denoted as 806-28Z+Olaparib 1 μM pretreatment). 806-mCD28z-CAR-T+5 μM olaparib pretreatment group (or denoted as 806-28Z+Olaparib 5 μM pretreatment); […]\nOlaparib pretreatment group: different concentrations of olaparib (1 μM, 5 μM) are added to the medium for culturing E0771-EGFRVIII or 4T1-EGFRvIII tumor cells respectively, culturing at 37° C. for 24 h, and then the cells are treated with trypsin and resuspended in fresh medium. The untreated mouse T cells and 806-mCD28z-CAR T cells in Example 1 are respectively taken to incubate with E0771-EGFRvIII or 4T1-EGFRVIII cells pretreated with different concentrations of olaparib at a ratio of 1:3, 1:1, and 3:1; 16 hours later, the secretion of LDH in the supernatant is detected by Cytox 96 Non-Radioactive Cytotoxicity Assay, then calculating the killing toxicity of 806-mCD28z CAR T cells to tumor cells pretreated with different concentrations of olaparib. […] Cytox 96 Non-Radioactive Cytotoxicity Assay (Promaga, REF: G1782); at the same time, the secretions of cytokines Granzyme B, IFN-γ, and IL-2 in the supernatant are detected by ELISA kit (Lianke Biotech Co. Ltd. CAT: 18^.22), for specific experimental procedures, referring to instructions of MouseGranzyme B, IFN-γ, IL-2 ELISA kit from Lianke Biotech Co, Ltd. […]"}, "[1]": {"system": "cytokines Granzyme B, IFN-γ, and IL-2", "assay": "ELISA of cytokines in supernatant of co-cultured 4T1-EGFRvIII cells and CAR-T cells", "assay_type": "cell-based, mouse", "conditions": "4T1-EGFRvIII co-culture with CAR-T cells, olaparib groups", "method": "Olaparib pretreatment group: different concentrations of olaparib (1 μM, 5 μM) are added to the medium for culturing E0771-EGFRVIII or 4T1-EGFRvIII tumor cells respectively, culturing at 37° C. for 24 h, and then the cells are treated with trypsin and resuspended in fresh medium. The untreated mouse T cells and 806-mCD28z-CAR T cells in Example 1 are respectively taken to incubate with E0771-EGFRvIII or 4T1-EGFRVIII cells pretreated with different concentrations of olaparib at a ratio of 1:3, 1:1, and 3:1; 16 hours later, the secretion of LDH in the supernatant is detected by Cytox 96 Non-Radioactive Cytotoxicity Assay, then calculating the killing toxicity of 806-mCD28z CAR T cells to tumor cells pretreated with different concentrations of olaparib. For specific detection steps and calculation methods, see the instructions of Promaga. Cytox 96 Non-Radioactive Cytotoxicity Assay (Promaga, REF: G1782); at the same time, the secretions of cytokines Granzyme B, IFN-γ, and IL-2 in the supernatant are detected by ELISA kit (Lianke Biotech Co. Ltd. CAT: 18^.22), for specific experimental procedures, referring to instructions of MouseGranzyme B, IFN-γ, IL-2 ELISA kit from Lianke Biotech Co, Ltd. […]"}}, "data": [{"smiles": "O=C(c1cc(Cc2n[nH]c(=O)c3ccccc23)ccc1F)N1CCN(C(=O)C2CC2)CC1", "note": "[olaparib]", "values": [{"measurement": "lethal effect on E0771-EGFRvIII cells compared with the CAR-T single treatment group", "setting": "E0771-EGFRvIII cells; 5 μM olaparib combined treatment group", "value": "higher synergistic lethal effect"}, {"measurement": "promotion of the killing effect of CAR-T cells on E0771-EGFRvIII cells", "setting": "E0771-EGFRvIII cells; 5 μM olaparib pretreatment group, better than 5 μM combined treatment group", "value": "most significant"}, {"measurement": "killing effect of CAR-T cells on E0771-EGFRvIII cells", "setting": "E0771-EGFRvIII cells; olaparib 1 μM or 5 μM, pretreatment or combined treatment, vs CAR-T alone, ratio 1:3, 1:1, 3:1, 16 hours, LDH", "value": "significantly improved"}, {"measurement": "level of cytokine in the supernatant", "setting": "[1]", "value": "not increased"}]}]}
